Experiments:
[1] = tested on: Reactive Oxygen Species (ROS); assay: Inhibitory effect on reactive oxygen species (ROS) production in fine dust-stimulated keratinocytes (DCF-DA fluorescence); type: cell-based; conditions: human keratinocytes; sample 50 ppm for 2 hours, then treated with 100 ppm of fine dust; vehicle control = 100, fine dust only = 384
Experimental: 5×10^4 Keratinocytes isolated from human epidermal tissue were added to each well of a 24-well plate and allowed to adhere for 24 hours. Then, […] and araloside X were treated at 50 ppm, respectively. At this time, for comparison, a control group (untreated group) was not treated with araloside V, araloside VII and araloside X, and a positive control group was treated with a known antioxidant ascorbic acid. After 2 hours, the culture solution was removed, and then 100 μl of phosphate buffered saline (PBS) containing 100 ppm of fine dust was added to each well. Then, the amount of active oxygen species increased by fine dust stimulation was quantified. The amount of ROS was quantified with reference to Tan's method of measuring the fluorescence of DCF-DA (dichlorofluorescin diacetate) oxidized by ROS (Tan et al., 1998, J. Cell Biol. Vol. 141, pp 1423-1432).

keratin 1 = assay: Recovery of keratin 1 marker gene expression in fine dust-treated keratinocytes (quantitative real-time PCR); type: cell-based; conditions: Human neonatal epidermal keratinocytes; 100 ppm fine dust 24 hours, then 50 ppm araloside for 5 days; FIG. 1; compared to fine dust only and untreated group
Experimental: (§1) Human neonatal epidermal keratinocytes (HEK; Lonza, NHEK-Neo-Neonatal Normal. Human Epidermal Keratinocytes, Pooled) were dispensed in medium (KBM-gold, Lonza) in a 6-well plate at a density of 1×10^5 cells per well and cultured at 37° C. for 24 hours. 100 ppm of fine dust was treated in the well and subjected to stimulation for 24 hours, which was then treated with medium (KBM-gold, Lonza) containing 50 ppm each of […] and araloside X and incubated at 37° C. for 5 days. Then, RNA was extracted from the HEK cells incubated for 5 days using an RNeasy mini kit (Qiagen), and then a cDNA was synthesized through an RT-PCR process using a Superscript III kit (Invitrogen). To confirm the expression level of keratin 1 and keratin 10 genes, a probe (TaqMan™ fluorogenic probe, Hs00196158_m1, Hs00166289_m1) was used to conduct the quantitative real-time PCR process and observe the expression behavior of keratin 1 and keratin. 10. The control group used an untreated group not treated with fine dust and also not treated with araloside V, araloside VII and araloside X; and fine dust-treated group treated with fine dust but not, treated with araloside V, araloside VII and araloside X.

IL1B = IL1B protein production in fine dust-stimulated human fibroblasts (ELISA); type: cell-based; conditions: 100 ppm fine dust 24 hours, then sample 50 ppm for 48 hours, culture solution ELISA, fine dust only = 311
Experimental: (§2) Human fibroblasts (PromoCell, Germany) were inoculated in a 6-well plate at a concentration of 1×10^5 cells, and cultured in an incubator (37° C., 5% CO2) for 24 hours. 100 ppm of fine dust was treated in the well and subjected to stimulation for 24 hours, which was then treated with medium containing 50 ppm each of araloside V, araloside VII and araloside X and allowed to react for 48 hours. After completion of the reaction, the culture solution was collected and subjected to ELISA analysis. At this time, α-bisabolol, a substance frequently used as an anti-inflammatory and irritation-mitigating agent, was used as a control group. Measurement of the production amount of IL8 and IL1B proteins was carried out using a ThermoFisher's kit, and experiments were conducted according to the method described in the company's manual.

IL8 = IL8 protein production in fine dust-stimulated human fibroblasts (ELISA); type: cell-based; conditions: 100 ppm fine dust 24 hours, then sample 50 ppm for 48 hours, culture solution ELISA, fine dust only = 246
Experimental: as §2

MMP-1 = MMP-1 inhibitory effect in fine dust- and UVB-treated Hs68 fibroblasts (MMP-1 assay kit); type: cell-based, Human; conditions: 100 ppm fine dust 24 hours, UVB 30 mJ/M^2, then 50 ppm araloside for 48 hours, FIG. 2, compared to fine dust only and untreated group
Experimental: Human neonatal fibroblast HS68 was purchased from Cascade Biologics (Invitrogen, USA) and used. Hs68 was cultured using DMEM medium supplemented with 10% FBS (fetal bovine serum), 50 U/ml of penacillin and 50 μg/ml of streptomycin. Cells were cultured under the conditions of 37° C., 5% CO2. The Hs68 was added to a 12-well plate at a concentration of 7.5×10^4 cells/well and cultured overnight. On the next day, the medium was replaced with FBS-free medium having a fine dust concentration of 100 ppm and cultured for 24 hours. After irradiating with UVB 30 mJ/M^2, the araloside V, araloside VII, and araloside X were treated at a concentration of 50 ppm for 48 hours, respectively. After culture, the medium was collected and the production amount of MMP-1 was measured using an MMP-1 assay kit (GE healthcare). The control group used an untreated group not treated with fine dust and also not treated with araloside V, araloside VII and araloside X; and a fine dust-treated group treated with fine dust but not treated with araloside V, araloside VII and araloside X.

keratin 10 = assay: Recovery of keratin 10 marker gene expression in fine dust-treated keratinocytes (quantitative real-time PCR); type: cell-based; conditions: Human neonatal epidermal keratinocytes; 100 ppm fine dust 24 hours, then 50 ppm araloside for 5 days; FIG. 1; compared to fine dust only and untreated group
Experimental: as §1

Compound | amount of ROS, ratio to control group treated with only vehicle (=100) [1] | expression of keratin 1 gene (keratin 1) | IL1B (production amount of protein) (IL1B) | IL8 (production amount of protein) (IL8) | MMP-1 activity (production amount of MMP-1) (MMP-1) | expression of keratin 10 gene (keratin 10)
CC1(C)CC[C@]2(C(=O)O[C@@H]3O[C@H](CO)[C@@H](O)[C@H](O)[C@H]3O)CC[C@]3(C)C(=CC[C@@H]4[C@@]5(C)CC[C@H](O[C@@H]6O[C@H](CO)[C@@H](O)[C@H](O[C@@H]7O[C@H](CO)[C@@H](O)[C@H](O)[C@H]7O)[C@H]6O[C@@H]6O[C@H](CO)[C@@H](O)[C@H](O)[C@H]6O)[C@@](C)(CO)[C@@H]5CC[C@]43C)[C@@H]2C1 [araloside VII] | 105 | a level equal to or higher than that in the untreated group | 256 pg/mL | 184 pg/mL | to about the level of MMP-1 activity in the untreated (control) group | a level equal to or higher than that in the untreated group
CC1(C)CC[C@]2(C(=O)O[C@@H]3O[C@H](CO)[C@@H](O)[C@H](O)[C@H]3O)CC[C@]3(C)C(=CC[C@@H]4[C@@]5(C)CC[C@H](O[C@H]6O[C@H](CO)[C@@H](O)[C@@H](O[C@@H]7O[C@H](CO)[C@@H](O)[C@H](O)[C@H]7O)[C@H]6O[C@@H]6O[C@H](CO)[C@@H](O)[C@H](O)[C@H]6O)C(C)(C)[C@@H]5CC[C@]43C)[C@@H]2C1 [araloside V] | 110 | a level equal to or higher than that in the untreated group | 243 pg/mL | 189 pg/mL | to about the level of MMP-1 activity in the untreated (control) group | a level equal to or higher than that in the untreated group
CC1(C)CC[C@]2(C(=O)O[C@@H]3O[C@H](CO)[C@@H](O)[C@H](O)[C@H]3O)CC[C@]3(C)C(=CC[C@@H]4[C@@]5(C)CC[C@H](O[C@@H]6O[C@H](CO)[C@@H](O)[C@H](O[C@@H]7O[C@H](CO)[C@@H](O)[C@H](O[C@@H]8O[C@H](CO)[C@@H](O)[C@H](O)[C@H]8O)[C@H]7O)[C@H]6O[C@@H]6O[C@H](CO)[C@@H](O)[C@H](O)[C@H]6O)C(C)(C)[C@@H]5CC[C@]43C)[C@@H]2C1 [araloside X] | 102 | a level equal to or higher than that in the untreated group | 252 pg/mL | 187 pg/mL | to about the level of MMP-1 activity in the untreated (control) group | a level equal to or higher than that in the untreated group
O=C1O[C@H]([C@@H](O)CO)C(O)=C1O [ascorbic acid, reference compound] | 200 |  |  |  |  | 
α-bisabolol [reference compound] |  |  | 214 pg/mL | 180 pg/mL |  | 
